Measured values from patent publication US12466820B2, “Amino quinazoline derivatives as P2X3 inhibitors” (CHIESI FARMACEUTICI S.p.A., priority 2019, dated 2025).

What follows are compounds tested against T1, h P2X3 (Homo sapiens, UniProt P56373) (assay: In vitro electrophysiology assay for P2X3 (automated whole-cell patch clamp, Sophion Qube)). Settings: Table 6; range of activity; inhibition of P2X3 current, agonist α,β-MeATP (800 nM).
T1 sequence (P56373 1-397): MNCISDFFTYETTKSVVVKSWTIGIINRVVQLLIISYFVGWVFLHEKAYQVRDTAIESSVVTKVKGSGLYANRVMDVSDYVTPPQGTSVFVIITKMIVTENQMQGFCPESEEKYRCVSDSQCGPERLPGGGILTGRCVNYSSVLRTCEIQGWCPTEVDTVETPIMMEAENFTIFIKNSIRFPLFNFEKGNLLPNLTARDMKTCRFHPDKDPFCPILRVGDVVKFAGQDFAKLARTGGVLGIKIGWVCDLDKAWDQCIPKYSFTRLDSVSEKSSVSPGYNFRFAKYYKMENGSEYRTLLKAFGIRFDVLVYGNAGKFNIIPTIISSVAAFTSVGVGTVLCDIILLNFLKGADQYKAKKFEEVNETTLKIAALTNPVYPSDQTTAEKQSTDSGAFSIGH
Assay type: cell-based
Description: Pharmacological Activity of the Compounds of the Invention In Vitro Electrophysiology Assay for P2X3
Cells expressing P2X3 receptors were grown according to standard practice and maintained at 37° C. in a 5% humidified CO2 atmosphere. The cells were seeded into T175 flask 2 days prior to the day of the assay and dissociated from the flasks using TrypLE when grown to confluence of 80-90%. The dissociated cells were resuspended in serum free media at a cell density of 3×10^6 cells/ml and loaded onto the Sophion Qube automated patch-clamp system. The extracellular assay buffer contained 145 mM NaCl, 4 mM KCl, 2 mM CaCl2), 1 mM MgCl2, 10 mM HEPES, and 10 mM glucose at pH 7.4. The intracellular assay solution contained 140 mM CsF, 10 mM NaCl, 10 mM EGTA, 10 mM HEPES at pH 7.2. Agonist stock solutions were prepared in H2O and diluted in bath solution prior to use. All antagonists were prepared as 10 mM stock solutions in DMSO and diluted in bath solution prior to use. All experiments were performed under the whole-cell patch clamp configuration at room temperature with 384 individual cells being voltage clamped at −60 mV simultaneously on the Sophion Qube instrument. Two baseline responses were established with the application of α,β-MeATP (800 nM), with the subsequent agonist applications being washed out using extracellular assay buffer containing 0.5 U/ml apyrase. Following the second agonist application, antagonist was incubated in the absence of α,β-MeATP for 10 minutes. After antagonist preincubation, 800 nM α,β-MeATP and antagonist were co-administered to determine the inhibitory effect of the antagonist. One concentration of an antagonist was assessed against a single cell, with different concentrations of the antagonist applied to other cells on the 384 recording substrate. The control P2X3 current amplitude was taken from the peak current amplitude from the second agonist response prior to preincubation with antagonist. The peak P2X3 current amplitude in the presence of antagonist was used to calculate the inhibitory effect at each concentration of the antagonist according to the following equation: […]
Concentration-response curves were constructed from ten different concentrations with each concentration of antagonist tested on at least two individual cells. The concentration of the antagonist to inhibit P2X3 current by 50% (IC50) was determined by fitting the data with the following equation: […]
Where ‘a’ is minimum response, ‘b’ is maximum response, ‘c’ is IC50 and ‘d’ is Hill slope.
The results for individual compounds are provided below in Table 6 and are expressed as range of activity.
The activity of the comparative examples A and B have been tested in the in vitro Electrophysiology Assay for P2X3 as described above.
`Cc1nnc([C@@H](C)Nc2ncnc3c(S(=O)(=O)N4CCOCC4)cc(-c4ccc(F)cc4)cc23)s1` (racemic) [Example 10, (Rac)-6-(4-fluorophenyl)-N-(1-(5-methyl-1,3,4-thiadiazol-2-yl)ethyl)-8-(morpholinosulfonyl)quinazolin-4-amine] showed an IC50 of less than 316 nM. `Cc1cnc(-c2cc(OC3CCOCC3)c3ncnc(NC(C)c4ccc(C)nn4)c3c2)nc1` (single isomer, unassigned) [Example 29, N-[1-(6-methylpyridazin-3-yl)ethyl]-6-(5-methylpyrimidin-2-yl)-8-tetrahydropyran-4-yloxy-quinazolin-4-amine] was tested, and the IC50 was 316 to 3160 nM. `Cc1ccc(-c2cc(OC3CCOCC3)c3ncnc(NC(C)c4nnc(C)s4)c3c2)nc1` (single isomer, unassigned) [Example 83, 6-(5-methyl-2-pyridyl)-N-[1-(5-methyl-1,3,4-thiadiazol-2-yl)ethyl]-8-tetrahydropyran-4-yloxy-quinazolin-4-amine] showed an IC50 of 316 to 3160 nM. `Cc1ccc(-c2cc(OC3CCOCC3)c3ncnc(NC(C)c4nnc(C)s4)c3c2)nc1` (single isomer, unassigned) [Example 84, 6-(5-methyl-2-pyridyl)-N-[1-(5-methyl-1,3,4-thiadiazol-2-yl)ethyl]-8-tetrahydropyran-4-yloxy-quinazolin-4-amine] showed an IC50 of less than 316 nM. `Cc1noc(C(C)Nc2ncnc3c(OC4CCOCC4)cc(-c4ccc(F)cn4)cc23)n1` (single isomer, unassigned) [Example 85, 6-(5-fluoro-2-pyridyl)-N-[1-(3-methyl-1,2,4-oxadiazol-5-yl)ethyl]-8-tetrahydropyran-4-yloxy-quinazolin-4-amine] showed an IC50 of less than 316 nM. `COc1cc(-c2ncc(C)cn2)cc2c(NC(C)c3ccc(C(F)(F)F)nn3)ncnc12` (single isomer, unassigned) [Example 120, 8-methoxy-6-(5-methylpyrimidin-2-yl)-N-[1-[6-(trifluoromethyl)pyridazin-3-yl]ethyl]quinazolin-4-amine] showed an IC50 of less than 316 nM. Compound `COc1cc(-c2ncc(C)cn2)cc2c(NC(C)c3nc(C)no3)ncnc12` (single isomer, unassigned) [Example 122, 8-Methoxy-N-[1-(3-methyl-1,2,4-oxadiazol-5-yl)ethyl]-6-(5-methylpyrimidin-2-yl)quinazolin-4-amine] has an IC50 of 3160 to 31600 nM. With `COc1cc(-c2ncc(C)cn2)cc2c(NC(C)c3nnc(C)s3)ncnc12` (single isomer, unassigned) [Example 124, 8-Methoxy-6-(5-methylpyrimidin-2-yl)-N-[1-(5-methyl-1,3,4-thiadiazol-2-yl)ethyl]quinazolin-4-amine] the IC50 was 316 to 3160 nM. `COc1cc(-c2ncc(C)cn2)cc2c(NC(C)c3nnc(C)s3)ncnc12` (single isomer, unassigned) [Example 125, 8-Methoxy-6-(5-methylpyrimidin-2-yl)-N-[1-(5-methyl-1,3,4-thiadiazol-2-yl)ethyl]quinazolin-4-amine] gave an IC50 of less than 316 nM. Compound `COc1cc(-c2ccc(C)cn2)cc2c(NC(C)c3nnc(C)s3)ncnc12` (single isomer, unassigned) [Example 126, 8-methoxy-6-(5-methyl-2-pyridyl)-N-[1-(5-methyl-1,3,4-thiadiazol-2-yl)ethyl]quinazolin-4-amine] has an IC50 of 3160 to 31600 nM. Work on `COc1cc(-c2ncc(C)cn2)cc2c(NC(C)c3nnc(C)o3)ncnc12` (single isomer, unassigned) [Example 128] yielded an IC50 of 3160 to 31600 nM. `COc1cc(-c2ccc(C)cn2)cc2c(NC(C)c3nc(C)no3)ncnc12` (single isomer, unassigned) [Example 162, 8-Methoxy-N-[1-(3-methyl-1,2,4-oxadiazol-5-yl)ethyl]-6-(5-methyl-2-pyridyl)quinazolin-4-amine] gave an IC50 of 316 to 3160 nM. With `COc1cc(-c2ncc(C)s2)cc2c(NC(C)c3nnc(C)s3)ncnc12` (single isomer, unassigned) [Example 164, 8-methoxy-N-(1-(5-methyl-1,3,4-thiadiazol-2-yl)ethyl)-6-(5-methylthiazol-2-yl)quinazolin-4-amine] the IC50 was 316 to 3160 nM. In the case of `COc1cc(-c2ncc(C)s2)cc2c(NC(C)c3nnc(C)s3)ncnc12` (single isomer, unassigned) [Example 165, 8-methoxy-N-(1-(5-methyl-1,3,4-thiadiazol-2-yl)ethyl)-6-(5-methylthiazol-2-yl)quinazolin-4-amine], the IC50 is reported as less than 316 nM. Compound `COc1cc(-c2ncc(C)cn2)cc2c(NC(C)c3nc(-c4ccncc4)no3)ncnc12` (single isomer, unassigned) [Example 167, 8-methoxy-6-(5-methylpyrimidin-2-yl)-N-(1-(3-(pyridin-4-yl)-1,2,4-oxadiazol-5-yl)ethyl)quinazolin-4-amine] has an IC50 of 316 to 3160 nM. `COc1cc(-c2ccc(F)cn2)cc2c(NC(C)c3ccc(C(F)(F)F)nn3)ncnc12` (single isomer, unassigned) [Example 170, 6-(5-fluoro-2-pyridyl)-8-methoxy-N-[1-[6-(trifluoromethyl)pyridazin-3-yl]ethyl]quinazolin-4-amine] showed an IC50 of 316 to 3160 nM. Compound `Cc1cnc(-c2cc(OC3CCOCC3)c3ncnc(NC(C)c4nnc(C)s4)c3c2)s1` (single isomer, unassigned) [Example 171, N-[1-(5-methyl-1,3,4-thiadiazol-2-yl)ethyl]-6-(5-methylthiazol-2-yl)-8-tetrahydropyran-4-yloxy-quinazolin-4-amine] has an IC50 of 316 to 3160 nM. In the case of `Cc1cnc(-c2cc(OC3CCOCC3)c3ncnc(NC(C)c4nnc(C)s4)c3c2)s1` (single isomer, unassigned) [Example 172, N-[1-(5-methyl-1,3,4-thiadiazol-2-yl)ethyl]-6-(5-methylthiazol-2-yl)-8-tetrahydropyran-4-yloxy-quinazolin-4-amine], the IC50 is reported as less than 316 nM. With `COc1cc(-c2ccc(F)cn2)cc2c(NC(C)c3nc(C)no3)ncnc12` (single isomer, unassigned) [Example 175, 6-(5-fluoropyridin-2-yl)-8-methoxy-N-(1-(3-methyl-1,2,4-oxadiazol-5-yl)ethyl)quinazolin-4-amine] the IC50 was 316 to 3160 nM. `COc1cc(-c2ccc(F)cc2)cc2c(NC(C)c3nc(-c4ccncc4)no3)ncnc12` (single isomer, unassigned) [Example 192, 6-(4-fluorophenyl)-8-methoxy-N-(1-(3-(pyridin-4-yl)-1,2,4-oxadiazol-5-yl)ethyl)quinazolin-4-amine] gave an IC50 of 3160 to 31600 nM. In the case of `Cc1nnc([C@@H](C)Nc2ncnc3c(S(=O)(=O)N(C)C)cc(-c4ccc(F)cc4)cc23)s1` (stereo in doubt) [Example 12, 6-(4-fluorophenyl)-N,N-dimethyl-4-((1-(5-methyl-1,3,4-thiadiazol-2-yl)ethyl)amino)quinazoline-8-sulfonamide], the IC50 is reported as less than 316 nM. Work on `COc1cc(-c2ccc(F)cc2)cc2c(NC(C)c3cccc(=O)[nH]3)ncnc12` (stereo not drawn) [Example 1, 6-(1-((6-(4-Fluorophenyl)-8-methoxyquinazolin-4-yl)amino)ethyl)pyridin-2(1H)-one] yielded an IC50 of less than 316 nM. For `COc1cc(-c2ncc(F)cn2)cc2c(NC(C)c3nc(C)no3)ncnc12` (stereo not drawn) [Example 3, 6-(5-fluoropyrimidin-2-yl)-8-methoxy-N-(1-(3-methyl-1,2,4-oxadiazol-5-yl)ethyl)quinazolin-4-amine], the IC50 was 316 to 3160 nM.

Same assay, conditions: range of activity; inhibition of P2X3 current evoked by 800 nM α,β-MeATP, 10 min antagonist preincubation; comparative examples
For `Cc1ccc(COc2ncnc3ncc(-c4ccc(F)cc4)cc23)cn1` [Comparative Example A, 6-(4-fluorophenyl)-4-[(6-methyl-3-pyridyl)methoxy]pyrido[2,3-d]pyrimidine, reference compound], the “h P2X3” value was “inactive”.
